According to patent publication EP2307018B1, “OXYMATRINE COMPOSITIONS AND USE THEREOF FOR TREATING AND PREVENTING CHRONIC INFECTIOUS DISEASES” (Chia, John K.S., priority 2008, dated 2010):

Legend:
[1] = tested on: enterovirus; test: case report Example 5, treatment of chronic fatigue; format: in vivo, human; conditions: before oxymatrine
Experimental: A person developed debilitating fatigue, sore throat, oral ulcers, vertigo, headaches and cognitive dysfunction two months after having a flu-like illness. […] Approximately four years later, the patient started taking oxymatrine. After an initial increase of gastrointestinal symptoms for the first two weeks, the patient tolerated 500 mg per day of oxymatrine.
The symptoms continued for two weeks and resolved after stopping oxymatrine. […] They continued to improve for 12 months after taking the medication.

[2] = tested on: echoviruses; conditions: in vitro; mechanism not defined; cited from earlier work
[3] = tested on: Coxsackievirus B; conditions: intravenous matrine; 0% in the placebo-treated group; cited from earlier work
[4] = tested on: coxsackievirus B; conditions: in vitro; mechanism not defined; cited from earlier work

Row | SMILES | clinical response [1] | growth inhibition of echoviruses in cell cultures [2] | patients with improvement of cardiac function, increase in lymphocyte number and function, and loss of viral markers [3] | growth inhibition of coxsackievirus B in cell cultures [4]
1 | CC(C)[C@H](N)C(=O)OCCOCn1cnc2c(=O)[nH]c(N)nc21 [valacyclovir, reference compound] | did not respond |  |  | 
2 | O=C1CCC[C@@H]2[C@H]3CCCN4CCC[C@@H](CN12)[C@@H]34 [matrine] |  | growth inhibition | more than 90% | growth inhibition
